“And” between values parts separate entries of the source, which are not always exact repeats. Identical values can stand only once. Inconclusive results and toxic doses are left out. Peptide text beside a SMILES is read from it. * marks the point of attachment. Boc = CC(C)(C)OC(=O)*; NHNH2 = NN*
System: P388 leukemia ip, CD2F1 mice, survival T/C
Assay: NCI In Vivo Anticancer Drug Screen. Data for tumor model P388 Leukemia (intraperitoneal) in CD2F1 (CDF1) mice
Settings: endpoint: median survival time, higher = longer survival
Procedure, shortened: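 Mice carrying the transplanted tumor received test compound or vehicle. Survival was recorded in each group, and the value is the treated-group measurement divided by that of the vehicle-treated control group.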

[1] = dose: 50.0 mg/kg/injection, schedule: Q01DX009 (ip), vehicle: saline with Tween-80
[2] = dose: 50.0 mg/kg/injection, schedule: Q01DX005 (ip), vehicle: Klucel (hydroxypropylcellulose) (HPC)
[3] = dose: 100.0 mg/kg/injection, schedule: Q01DX005 (ip), vehicle: Klucel (hydroxypropylcellulose) (HPC)
[4] = dose: 200.0 mg/kg/injection, schedule: Q01DX005 (ip), vehicle: Klucel (hydroxypropylcellulose) (HPC)
[5] = dose: 60.0 mg/kg/injection, schedule: Q01DX005 (ip), vehicle: saline with Tween-80
[6] = dose: 120.0 mg/kg/injection, schedule: Q01DX005 (ip), vehicle: saline with Tween-80
[7] = dose: 240.0 mg/kg/injection, schedule: Q01DX005 (ip), vehicle: saline with Tween-80
[8] = dose: 60.0 mg/kg/injection, schedule: Q01DX005 (ip), vehicle: saline
[9] = dose: 120.0 mg/kg/injection, schedule: Q01DX005 (ip), vehicle: saline
[10] = dose: 50.0 mg/kg/injection, schedule: Q01DX005 (ip), vehicle: saline with Tween-80
[11] = dose: 200.0 mg/kg/injection, schedule: Q01DX005 (ip), vehicle: saline with Tween-80

O=C(Nc1ccc(C2=NCCCN2)cc1)Nc1cccc(C(=O)Nc2ccc(C3=NCCCN3)cc2)c1
T/C (dose: 1.5 mg/kg/injection, schedule: Q01DX009 (ip), vehicle: saline with Tween-80): 100 % of control | T/C (dose: 3.0 mg/kg/injection, schedule: Q01DX009 (ip), vehicle: saline with Tween-80): 109 % of control | T/C (dose: 12.5 mg/kg/injection, schedule: Q04DX003 (ip), vehicle: saline with Tween-80): 104 % of control | T/C (dose: 16.5 mg/kg/injection, schedule: Q01DX009 (ip), vehicle: saline with Tween-80): 163 % of control | T/C (dose: 25.0 mg/kg/injection, schedule: Q04DX003 (ip), vehicle: saline with Tween-80): 118 % of control | T/C [1]: 90 % of control | T/C (dose: 50.0 mg/kg/injection, schedule: Q04DX003 (ip), vehicle: saline with Tween-80): 118 % of control

Cc1c(Cl)c(Cl)nn1C(C)C(=O)N(C)C (stereo unspecified)
T/C (dose: 100.0 mg/kg/injection, schedule: Q04DX003 (ip), vehicle: Klucel (hydroxypropylcellulose) (HPC)): 95 % of control | T/C (dose: 200.0 mg/kg/injection, schedule: Q04DX003 (ip), vehicle: Klucel (hydroxypropylcellulose) (HPC)): 95 % of control

O=c1[nH]c(=O)n(C2OC(CO)C(O)C2O)cc1N1CCOCC1 (stereo unspecified)
T/C (dose: 50.0 mg/kg/injection, schedule: Q01DX005 (ip), vehicle: saline): 100 % of control | T/C (dose: 100.0 mg/kg/injection, schedule: Q01DX005 (ip), vehicle: saline): 100 % of control | T/C (dose: 200.0 mg/kg/injection, schedule: Q01DX005 (ip), vehicle: saline): 98 % of control

C/C=C/c1cc(OC)c2c(c1)[C@H](C)C(c1ccc3c(c1)OCO3)O2 (stereo partly specified)
T/C (dose: 37.5 mg/kg/injection, schedule: Q01DX005 (ip), vehicle: Klucel (hydroxypropylcellulose) (HPC)): 97 % of control | T/C (dose: 75.0 mg/kg/injection, schedule: Q01DX005 (ip), vehicle: Klucel (hydroxypropylcellulose) (HPC)): 86 % of control | T/C (dose: 150.0 mg/kg/injection, schedule: Q01DX005 (ip), vehicle: Klucel (hydroxypropylcellulose) (HPC)): 88 % of control | T/C (dose: 300.0 mg/kg/injection, schedule: Q01DX005 (ip), vehicle: Klucel (hydroxypropylcellulose) (HPC)): 91 % of control

CCCC(O)C(C)[N+](=O)[O-] (stereo unspecified)
T/C (dose: 100.0 mg/kg/injection, schedule: Q04DX003 (ip), vehicle: saline): 100 % of control | T/C (dose: 200.0 mg/kg/injection, schedule: Q04DX003 (ip), vehicle: saline): 95 % of control

O=C(O)C(CCCCNC(=S)S)NC(=S)S.[Na+].[Zn+2] (stereo unspecified)
T/C [2]: 95 % of control | T/C [3]: 95 % of control | T/C [4]: 102 % of control

O=C(Cc1nc2cc(Cl)c(Cl)cc2nc1CC(=O)c1cccnc1)c1cccnc1
T/C [5]: 110 % of control | T/C [6]: 103 % of control | T/C [7]: 100 % of control

NC1CCCC1C(=O)O (stereo unspecified)
T/C (dose: 50.0 mg/kg/injection, schedule: Q01DX009 (ip), vehicle: saline): 96 % of control | T/C (dose: 100.0 mg/kg/injection, schedule: Q01DX009 (ip), vehicle: saline): 100 % of control | T/C (dose: 200.0 mg/kg/injection, schedule: Q01DX009 (ip), vehicle: saline): 102 % of control

ClC1=CC(Cl)=C2N=C(N3CCCC3)N=C3N=C(N4CCCC4)N=C1N32
T/C (dose: 50.0 mg/kg/injection, schedule: Q01DX005 (ip), vehicle: Klucel + Tween-80): 93 % of control | T/C (dose: 100.0 mg/kg/injection, schedule: Q01DX005 (ip), vehicle: Klucel + Tween-80): 93 % of control | T/C (dose: 200.0 mg/kg/injection, schedule: Q01DX005 (ip), vehicle: Klucel + Tween-80): 90 % of control

COc1ccc(/C=C/C2=C(C(=O)O)CCCO2)cc1
T/C (dose: 100.0 mg/kg/injection, schedule: Q04DX002 (ip), vehicle: saline with Tween-80): 103 % of control | T/C (dose: 200.0 mg/kg/injection, schedule: Q04DX002 (ip), vehicle: saline with Tween-80): 100 % of control | T/C (dose: 400.0 mg/kg/injection, schedule: Q04DX002 (ip), vehicle: saline with Tween-80): 90 % of control

CC(NC(=O)C(Cc1c[nH]c2ccccc12)NC(=O)OC(C)(C)C)C(=O)NN (stereo not drawn) (Boc-Trp-Ala-NHNH2; configuration not given here)
T/C (dose: 12.5 mg/kg/injection, schedule: Q01DX009 (ip), vehicle: other): 98 % of control | T/C (dose: 25.0 mg/kg/injection, schedule: Q01DX009 (ip), vehicle: other): 100 % of control | T/C (dose: 50.0 mg/kg/injection, schedule: Q01DX009 (ip), vehicle: other): 105 % of control | T/C (dose: 100.0 mg/kg/injection, schedule: Q01DX009 (ip), vehicle: other): 109 % of control | T/C (dose: 200.0 mg/kg/injection, schedule: Q01DX009 (ip), vehicle: other): 119 % of control

CCOC(=O)NN(C(=O)OCC)C(C)(C)C(C)=O
T/C (dose: 100.0 mg/kg/injection, schedule: Q01DX001 (ip), vehicle: saline): 100 % of control | T/C (dose: 200.0 mg/kg/injection, schedule: Q01DX001 (ip), vehicle: saline): 100 % of control and 106 % of control | T/C (dose: 400.0 mg/kg/injection, schedule: Q01DX001 (ip), vehicle: saline): 100 % of control and 108 % of control

O=C(CNC(=O)c1ccccc1)N/N=C/c1c(O)ccc2ccccc12
T/C [5]: 95 % of control | T/C [6]: 93 % of control | T/C [7]: 101 % of control

Cc1cccc(Cl)c1NC(=O)CN(C)CCN1CCCC1
T/C [8]: 103 % of control | T/C [9]: 110 % of control

Cc1cccc(N=C(c2ccccc2)C2C(=O)c3ccccc3C2=O)c1
T/C [10]: 94 % of control | T/C (dose: 100.0 mg/kg/injection, schedule: Q01DX005 (ip), vehicle: saline with Tween-80): 94 % of control | T/C [11]: 91 % of control

CC(=O)Nc1ccc2c(c1)N(O)C(=O)C2(C)C
T/C [2]: 97 % of control | T/C [3]: 95 % of control | T/C [4]: 102 % of control

Oc1[nH]c2ccccc2c1N=NC1=NCCN1
T/C [8]: 101 % of control | T/C [9]: 104 % of control | T/C (dose: 240.0 mg/kg/injection, schedule: Q01DX005 (ip), vehicle: saline): 87 % of control

Oc1cc(O)cc(/C=C/c2ccc(O)c(O)c2)c1
T/C (dose: 3.12 mg/kg/injection, schedule: Q01DX009 (ip), vehicle: DMSO): 109 % of control | T/C (dose: 6.25 mg/kg/injection, schedule: Q01DX009 (ip), vehicle: DMSO): 114 % of control | T/C (dose: 12.5 mg/kg/injection, schedule: Q01DX009 (ip), vehicle: DMSO): 118 % of control | T/C (dose: 25.0 mg/kg/injection, schedule: Q01DX009 (ip), vehicle: DMSO): 123 % of control

COC(=O)C(Br)c1cccc(OC)c1 (stereo unspecified)
T/C (dose: 132.0 mg/kg/injection, schedule: Q04DX003 (ip), vehicle: saline with Tween-80): 100 % of control | T/C (dose: 178.0 mg/kg/injection, schedule: Q01DX009 (ip), vehicle: saline with Tween-80): 100 % of control | T/C (dose: 200.0 mg/kg/injection, schedule: Q04DX003 (ip), vehicle: saline with Tween-80): 100 % of control | T/C (dose: 266.0 mg/kg/injection, schedule: Q01DX009 (ip), vehicle: saline with Tween-80): 100 % of control | T/C (dose: 300.0 mg/kg/injection, schedule: Q04DX003 (ip), vehicle: saline with Tween-80): 100 % of control | T/C (dose: 400.0 mg/kg/injection, schedule: Q01DX009 (ip), vehicle: saline with Tween-80): 100 % of control

O=C1CS(=O)(=O)CN1c1ccc(Cl)c(Cl)c1
T/C (dose: 50.0 mg/kg/injection, schedule: Q01DX005 (ip), vehicle: acetone): 112 % of control | T/C (dose: 100.0 mg/kg/injection, schedule: Q01DX005 (ip), vehicle: acetone): 109 % of control | T/C (dose: 200.0 mg/kg/injection, schedule: Q01DX005 (ip), vehicle: acetone): 109 % of control

CC1=NOCC(=O)N1
T/C (dose: 50.0 mg/kg/injection, schedule: Q01DX005 (ip), vehicle: distilled water + alcohol): 106 % of control | T/C (dose: 100.0 mg/kg/injection, schedule: Q01DX005 (ip), vehicle: distilled water + alcohol): 102 % of control | T/C (dose: 200.0 mg/kg/injection, schedule: Q01DX005 (ip), vehicle: distilled water + alcohol): 105 % of control

[N-]=[N+]=Nc1ccnc2cc(F)ccc12
T/C [5]: 96 % of control | T/C [6]: 104 % of control | T/C [7]: 95 % of control

CC(=O)Sc1ccccc1C(=O)NCc1ccc(Cl)cc1
T/C [1]: 117 % of control | T/C (dose: 100.0 mg/kg/injection, schedule: Q01DX009 (ip), vehicle: saline with Tween-80): 104 % of control | T/C (dose: 200.0 mg/kg/injection, schedule: Q01DX009 (ip), vehicle: saline with Tween-80): 120 % of control

C/C(N=NC(=S)N1CCSCC1)=C1\C=CC=CN1O
T/C (dose: 12.5 mg/kg/injection, schedule: Q01DX005 (ip), vehicle: saline with Tween-80): 97 % of control | T/C (dose: 25.0 mg/kg/injection, schedule: Q01DX005 (ip), vehicle: saline with Tween-80): 100 % of control | T/C [10]: 107 % of control and 97 % of control | T/C [11]: 102 % of control

— PubChem BioAssay AID330 (DTP/NCI, 2004)
